“Also recorded” adds a separate entry of the source.
Experiments:
[1] = tested on: cytochrome c; test: Cytochrome c reduction assay; format: biochemical; conditions: 100 μM compound, 10 μM cytochrome c, absorbance 550 nm
Description: The rate of cytochrome c (10 μM) reduction was measured by monitoring the change in absorbance at 550 nm. Briefly the reaction was initiated by addition of 100 μM of the invention compounds to a mixture containing 50 mM phosphate buffer, 0.1 mM EDTA, pH 7.8, and 10 μM cytochrome c (Sigma, St. Louis, Mo. USA). For cytochrome c reduction by superoxide, xanthine oxidase (0.01 IU/mL) (Sigma, St. Louis, Mo. USA) was used in presence of xanthine (50 μM).

[2] = tested on: CEM leukemia cells; test: Mitochondrial membrane potential (Δψm) assay, TMRM, FACS; format: cell-based, human; conditions: pretreatment 0.5, 1 or 2.5 μM overnight, DEM
Description: Measurement of Mitochondrial Membrane Potential (Δψm)(FACS). For the determination of Δψm, CEM leukemia cells were pre-treated with or without the test compounds. The cells were treated with 5 mM DEM for 120 minutes, collected by centrifugation at 300×g for 3 minutes and then washed twice with phosphate buffered saline. The cells were re-suspended in HSSB buffer and incubated at 37° C. in the dark for 15 minutes with 250 nM TMRM (a cationic dye which accumulates within mitochondria in accordance with the Δψm Nernst potential). Cells were collected by centrifugation at 300×g for 3 minutes and then washed twice with phosphate buffered saline. The samples were analyzed immediately by flow cytometry using 488 nm excitation laser and the FL2-H channel. The results obtained were verified in three independent experiments. The protonophore FCCP (30 μM) was used to dissipate the chemiosmotic proton gradient (ΔμH^+) and served as a control for loss of Δψm. In each analysis, 10,000 events were recorded.

[3] = C11-BODIPY581/591 oxidation lipid peroxidation assay in liposomes; conditions: 10 mM AAPH, phospholipid liposomes, phosphate buffer, 40° C.
Description: To overcome the problem of spectral overlap using cis-parinaric acid, a fluorescence assay for lipid peroxidation using a lipophilic probe belonging to the BODIPY class of fluorescent dyes was used. C11-BODIPY^581/591 (4,4-difluoro-5(4-phenyl-1,3-butadienyl)-4-bora-3a,4a-diaza-s-indacene-3-propionic acid) fluorescence shifts from red to green upon oxidation. C11-BODIPY^581/591 (Molecular Probes, Eugene, Oreg., USA) stock solution concentrations were determined by measuring the absorption of C11-BODIPY^581/591 at 582 nm using a molar extinction coefficient of 140,000 mol^−1 cm^−1(R. P. Haugland, (1999) Handbook of Fluorescent Probes and Research Chemicals, Molecular Probes, Inc., Eugene, Oreg.). The lipid peroxidation inducer 2,2′-Azobis (2-amidino-propane dihydrochloride) (AAPH) and the antioxidant compound α-tocopherol were obtained from Sigma (St. Louis, Mo., USA). Phospholipid bilayers were prepared from 1-stearoyl-2-oleoyl-phosphatidylcholine (SOPC) and 1,2-dilinoleoyl-phosphatidylcholine (DLPC) and were purchased from Avanti® polar lipids, INC (Alabaster, Ala., USA).
Phosphotidylcholine (PC) liposomes were prepared as described before (Guey-Shuang et al. (1982) Lipids. 17, 403-413). Briefly, DLPC (25 mg) and SOPC (25 mg) were dissolved in chloroform and the solvent was removed by nitrogen evaporation (˜2 hours to give a thin film of PC in a round bottom flask. The lipid film was hydrated with 50 mL of 10 mM Tris-HCl (pH 7.4), 100 mM KCl, shaken and sonicated for 15 seconds. The liposomes obtained were filtered several times through 0.2 μM membrane filter.
C11 BODIPY^581/591 was incorporated into liposomes and oxidized by peroxyl radicals derived from the decomposition of AAPH in presence and absence of the compounds. […] Liposomes were pre-incubated for 10 min with 200 nM C11 BODIPY^581/591 to allow their incorporation into the lipid phase of the liposomes. After the addition of AAPH (10 mM) the decay of red fluorescence was followed at λ exc=570 nm, λ em=600 nm. Relative fluorescence units were normalized to 100% intensity. Results obtained were verified by repeating experiments N=3 independent experiments.

[4] = tested on: CEM cells; test: Reactive oxygen species (ROS) assay, DCFH-DA, DEM-treated cells; format: cell-based, human; conditions: for protection against ROS production (DCF fluorescence): 5 mM DEM
Source text: Cellular ROS production can be monitored using 2′,7′-dichlorodihydrofluorescein diacetate (DCFH-DA) (LeBel et al. (1992) Chem. Res. Toxicol. 5, 227-231) (Molecular Probes, Eugene, Oreg., USA), a membrane permeable and oxidant-sensitive fluorescent dye. DCFH-DA is a non-fluorescent derivative of fluorescein that emits fluorescence after being oxidized by hydrogen peroxide and other ROS. The emitted fluorescence is directly proportional to the concentration of hydrogen peroxide. DCFH-DA is nonionic and nonpolar and is easily taken up by cells. Once inside the cell, DCFH-DA is hydrolyzed by cellular esterases to non-fluorescent DCFH which traps the dye in the cell. In the presence of ROS including hydrogen peroxide, DCFH is oxidized to the highly fluorescent compound dichlorofluorescein (DCF). The intracellular DCF fluorescence is used as an index of cellular ROS production.
Cellular oxidative stress was induced by pharmacological depletion of glutathione (GSH) using the chemical diethylmaleate (DEM). ROS production was assessed by monitoring DCF fluorescence. Leukemic CEM cells (ATCC®, catalogue number CRL-2264) were cultured in RPMI (GIBCO, Grand island, N.Y., USA) with 10% FCS, 2 mM glutamine (HyClone, South Logan, Utah, USA) and 1% penicillin-streptomycin mix antibiotics (Cellgro, Manassan, Va., USA) supplements. Cells were maintained in the log phase at a concentration of between 1×10^5 and 1×10^6 cells/mL. CEM cells (1×10^6 cell/mL) were plated (1 mL) in twelve well plate and treated with the invention compounds (final concentration 1 and 5 μM), and incubated for two hours at 37° C., 5% CO2. The compounds tested were prepared by first making stock solutions (2.5 mM) in dimethylsulfoxide (DMSO). Cells were treated with 5 mM DEM for 30 minutes and collected by centrifugation at 300×g for 3 min and then washed twice with Hanks' Balanced Salt Solution (HSSB) buffer (Sigma, St. Louis, Mo. USA). Cells were resuspended in HSSB buffer+10 mM glucose and incubated at 37° C. in the dark for 20 min with 10 μM DCFH-DA. Cells were collected by centrifugation at 300×g for 3 min and then washed twice with HSSB buffer. The samples were analyzed immediately by flow cytometry (Becton-Dickinson FACS Caliber), (Cell Quest software, BD Biosciences) using 488 nm excitation laser and FL1-H channel 538 nm emission filter. In each analysis, 10,000 events were recorded after cell debris were electronically gated out. Results obtained were verified by repeating experiments N=3 independent experiments. Authentic hydrogen peroxide was used as a positive control.

[5] = tested on: CEM cells; test: Trypan blue cell viability assay, DEM-treated cells; format: cell-based, human
Description: Cell viability determined by trypan blue exclusion assay: This technique was used to assess the cytoprotective effects of the invention compounds in cultured cells pharmacologically treated to induce cell death by GSH depletion. DEM was used to deplete cellular GSH and induce oxidative stress. The viability of DEM-treated CEM cells was determined by their ability to exclude the dye trypan blue. Viable cells exclude trypan blue; whereas, non-viable cells take up the dye and stain blue. Briefly, CEM cells were grown in RPMI 1640 medium (GIBCO, Grand island, N.Y., USA) supplemented with 10% fetal calf serum, 2 mM glutamine (HyClone, South Logan, Utah, USA), 1% penicillin-streptomycin mix (Cellgro, Manassan, Va., USA). Cells were seeded at a density of 1×10^6 cells/mL and treated with different concentrations of the invention compounds. Cells were incubated at 37° C. in a humidified atmosphere of 5% CO2 in air for three hours with 5 mM DEM. Cell viability was determined by staining cells with 0.4% trypan blue using a hemacytometer. At least 500 cells were counted for each experimental group. At the time of assay, >95% of DEM-treated cells were trypan blue positive; whereas, in non-DEM treated control cell cultures >95% cells were viable. Cell viability was expressed as the percentage of control. Data are expressed as means±S.E.M (n=3).

[6] = James et al. (2005); cited from earlier work

Row | Structure (SMILES) | reduction of cytochrome c [1] | maintaining mitochondrial membrane potential Δψm [2] | quenching of lipid peroxidation (retention of C11-BODIPY581/591 fluorescence) [3] | protection against ROS production (DCF fluorescence) ([4]; compound 1 μM) | protection against ROS production (DCF fluorescence) ([4]; compound 5 μM) | suppression of ROS production (DCF fluorescence) ([4]; pretreatment 0.5, 1 or 5 μM, DEM) | EC50 ([5]; Homo sapiens, CCRF-CEM, CEM cells, pre-treatment 2 h, diethylmaleate 3 h, trypan blue exclusion, read-out: EC50 (effective concentration that prevents 50% of cell death)) | maintaining cell viability (trypan blue exclusion) ([5]; overnight incubation, then 5 mM DEM, 3 h) | calculated octanol-water partition coefficient [6]
1 | Cc1cc(N(C)C)nc(CCCCCCCCCCO)c1O [Compound B, 2-N,N-dimethylamino-5-hydroxy-4-methyl-6-(10-hydroxydecyl)-pyridine] | clearly reduce cytochrome c | clearly more effective in maintaining mitochondrial membrane potential; also recorded: very favorable properties | about as effective as C | less effective at this concentration | significantly more effective in blocking diethylmaleate-induced ROS production compared to idebenone or its reduced form (Idebenol); also recorded: protected the cells | more effective than idebenone at all tested concentrations; also recorded: more effective than idebenone in suppressing ROS in a dose-dependent fashion | 300 ± 22 nM | quite effective in maintaining cell viability following DEM treatment; also recorded: superior to idebenone in maintaining the viability of DEM-treated cells | 
2 | COC1=C(OC)C(=O)C(C/C=C(\C)CC/C=C(\C)CC/C=C(\C)CC/C=C(\C)CC/C=C(\C)CC/C=C(\C)CC/C=C(\C)CC/C=C(\C)CC/C=C(\C)CCC=C(C)C)=C(C)C1=O [coenzyme Q10] |  |  |  |  |  |  |  |  | > 10^20

Reference: US8952025B2, “Multifunctional radical quenchers and their uses” (Arizona Board of Regents, A Body Corporate of the State of …, priority 2010, dated 2015)
